In article PMC12748958 (Nature Communications, 2025):

Biological target: T1, PsiR-M2 (Agrobacterium fabrum, UniProt A9CH24, R109G/V134A)
T1 sequence (A9CH24 1-359 R109G/V134A): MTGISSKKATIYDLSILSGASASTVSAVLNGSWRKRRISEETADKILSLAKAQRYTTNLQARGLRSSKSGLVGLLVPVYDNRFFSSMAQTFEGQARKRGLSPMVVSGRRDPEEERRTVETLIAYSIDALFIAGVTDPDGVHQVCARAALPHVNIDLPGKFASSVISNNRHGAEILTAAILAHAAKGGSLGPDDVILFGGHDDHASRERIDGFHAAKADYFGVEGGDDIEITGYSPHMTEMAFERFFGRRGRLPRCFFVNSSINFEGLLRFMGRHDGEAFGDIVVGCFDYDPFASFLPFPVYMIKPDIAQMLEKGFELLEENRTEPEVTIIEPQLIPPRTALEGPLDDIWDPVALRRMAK
Assay: microscale thermophoresis
Format: binding

## O=C(CO)[C@H](O)[C@H](O)[C@H](O)CO [D-allulose]
  microscale thermophoresis (MST) on purified protein: After purifying PsiR-WT, M2, and M4 from E. coli BL21(DE3) via His-tag affinity chromatography
